Key:
bedstraw = assay: Test B pre/postemergence bedstraw; format: in vivo, Galium aparine; conditions: Postemergence
Summary of the method: (§1)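 Response is a visual 0-to-10 score relative to untreated plants, where 0 means no effect and 10 means complete control, taken twelve to sixteen days after application. Treatments went onto soil at planting and onto foliage of 1- to 4-leaf plants, using a surfactant-containing non-phytotoxic solvent.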

blackgrass = assay: Test B pre/postemergence blackgrass; format: in vivo, Alopecurus myosuroides
Summary of the method: as §1

surinam grass = assay: Test B pre/postemergence surinam grass; format: in vivo, Brachiaria decumbens
Summary of the method: as §1

cocklebur = assay: Test B pre/postemergence cocklebur; format: in vivo, Xanthium strumarium
Summary of the method: as §1

corn = assay: Test B pre/postemergence corn; format: in vivo, Zea mays
Summary of the method: as §1

crabgrass = assay: Test B pre/postemergence crabgrass; format: in vivo, Digitaria sanguinalis
Summary of the method: as §1

morningglory = assay: Test B pre/postemergence morningglory; format: in vivo, Ipomoea hederacea
Summary of the method: as §1

pigweed = assay: Test B pre/postemergence pigweed; format: in vivo, Amaranthus retroflexus
Summary of the method: as §1

rape = assay: Test B pre/postemergence rape; format: in vivo, Brassica napus
Summary of the method: as §1

sugar beet = assay: Test B pre/postemergence sugar beet; format: in vivo, Beta vulgaris
Summary of the method: as §1

velvetleaf = assay: Test B pre/postemergence velvetleaf; format: in vivo, Abutilon theophrasti
Summary of the method: as §1

wheat = assay: Test B pre/postemergence wheat; format: in vivo, Triticum aestivum
Summary of the method: as §1

wild oat = assay: Test B pre/postemergence wild oat; format: in vivo, Avena fatua
Summary of the method: as §1

purple nutsedge = assay: Test B pre/postemergence purple nutsedge; format: in vivo, Cyperus rotundus
Summary of the method: as §1

smallflower flatsedge = assay: Test B flood test smallflower flatsedge; format: in vivo, Cyperus difformis
Summary of the method: (§2)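 Flood test on plants grown to the 2-leaf stage; treated plants kept in greenhouse twelve to sixteen days, then visually rated against controls on a 0 (no effect) to 10 (complete control) scale.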

duck salad = assay: Test B flood test duck salad; format: in vivo, Heteranthera limosa
Summary of the method: as §2

[1] = Postemergence, Rate 125 g/ha, scale 0 to 10, 0 is no effect, 10 is complete control
[2] = Postemergence, Rate 250 g/ha, scale 0 to 10
[3] = Postemergence, Rate 500 g/ha, scale 0 to 10, 0 is no effect, 10 is complete control
[4] = Preemergence, Rate 62 g/ha, scale of 0 to 10 where 0 is no effect and 10 is complete control
[5] = Preemergence, Rate 125 g/ha, scale 0 to 10, 0 is no effect, 10 is complete control
[6] = Preemergence, Rate 250 g/ha, scale 0 to 10, 0 is no effect, 10 is complete control
[7] = Preemergence, Rate 500 g/ha, scale 0 to 10, 0 is no effect, 10 is complete control
[8] = Rate 62 g/ha, Postemergence, scale 0 to 10, 0 no effect, 10 complete control
[9] = Rate 62 g/ha, flood test species, Pre-emergence, visual evaluation after twelve to sixteen days
[10] = Rate 125 g/ha, under heading Pre-emergence, flood test species, visual evaluation after twelve to sixteen days
[11] = Rate 250 g/ha, Pre-emergence (flood test species), scale 0 to 10, 0 is no effect, 10 is complete control
[12] = Rate 500 g/ha, Pre-emergence section of Table B, 0 to 10 scale (0 no effect, 10 complete control)

CC(C)C(=O)Cn1c(=O)on(C(=O)N(c2ccc(F)cc2F)C(C)C)c1=O [Compound 486]
Bedstraw plant response rating (bedstraw; Rate 125 g/ha, scale 0 to 10, 0 is no effect, 10 is complete control): 1 | Bedstraw plant response rating (bedstraw; Rate 250 g/ha, scale 0 to 10): 4 | Plant response rating, Bedstraw (bedstraw; Rate 500 g/ha, scale 0 to 10, 0 is no effect, 10 is complete control): 8 | Bedstraw plant response rating (bedstraw; Rate 62 g/ha, scale 0 to 10, 0 no effect, 10 complete control): 0 | Blackgrass plant response rating (blackgrass; [1]): 6 | Blackgrass plant response rating (blackgrass; [2]): 8 | Plant response rating, Blackgrass (blackgrass; [3]): 8 | Plant response rating, Blackgrass (blackgrass; [4]): 7 | Blackgrass plant response rating (blackgrass; [5]): 9 | Blackgrass plant response rating (blackgrass; [6]): 10 | Blackgrass plant response rating (blackgrass; [7]): 10 | Blackgrass plant response rating (blackgrass; [8]): 0 | B. signalgrass plant response rating (surinam grass; [1]): 0 | B. signalgrass plant response rating (surinam grass; Postemergence, Rate 250 g/ha, scale 0 to 10, 0 no effect, 10 complete control): 1 | Plant response rating, B. signalgrass (surinam grass; [3]): 5 | Plant response rating, B. signalgrass (surinam grass; [4]): 5 | B. signalgrass plant response rating (surinam grass; [5]): 5 | B. signalgrass plant response rating (surinam grass; [6]): 6 | B. signalgrass plant response rating (surinam grass; [7]): 8 | B. signalgrass plant response rating (surinam grass; [8]): 0 | Cocklebur plant response rating (cocklebur; [1]): 0 | Cocklebur plant response rating (cocklebur; [2]): 0 | Plant response rating, Cocklebur (cocklebur; [3]): 0 | Plant response rating, Cocklebur (cocklebur; [4]): 0 | Cocklebur plant response rating (cocklebur; [5]): 0 | Cocklebur plant response rating (cocklebur; [7]): 0 | Cocklebur plant response rating (cocklebur; [8]): 0 | Corn plant response rating (corn; [1]): 0 | Corn plant response rating (corn; [2]): 0 | Plant response rating, Corn (corn; [3]): 3 | Plant response rating, Corn (corn; [4]): 0 | Corn plant response rating (corn; [5]): 0 | Corn plant response rating (corn; [6]): 5 | Corn plant response rating (corn; [7]): 8 | Corn plant response rating (corn; [8]): 0 | Crabgrass plant response rating (crabgrass; [1]): 3 | Crabgrass plant response rating (crabgrass; [2]): 5 | Plant response rating, Crabgrass (crabgrass; [3]): 9 | Plant response rating, Crabgrass (crabgrass; [4]): 8 | Crabgrass plant response rating (crabgrass; [5]): 9 | Crabgrass plant response rating (crabgrass; [6]): 10 | Crabgrass plant response rating (crabgrass; [7]): 10 | Crabgrass plant response rating (crabgrass; [8]): 0 | Morningglory plant response rating (morningglory; [1]): 1 | Plant response rating, Morningglory (morningglory; [3]): 2 | Plant response rating, Morningglory (morningglory; [4]): 0 | Morningglory plant response rating (morningglory; [5]): 0 | Morningglory plant response rating (morningglory; [6]): 0 | Morningglory plant response rating (morningglory; [7]): 0 | Morningglory plant response rating (morningglory; [8]): 1 | Redroot pigweed plant response rating (pigweed; [1]): 0 | Plant response rating, Redroot pigweed (pigweed; [3]): 2 | Plant response rating, Redroot pigweed (pigweed; [4]): 6 | Redroot pigweed plant response rating (pigweed; [5]): 8 | Redroot pigweed plant response rating (pigweed; [6]): 9 | Redroot pigweed plant response rating (pigweed; [7]): 9 | Redroot pigweed plant response rating (pigweed; [8]): 0 | Rape plant response rating (rape; [1]): 0 | Plant response rating, Rape (rape; [3]): 1 | Plant response rating, Rape (rape; [4]): 2 | Rape plant response rating (rape; [5]): 2 | Rape plant response rating (rape; [6]): 6 | Rape plant response rating (rape; [7]): 6 | Rape plant response rating (rape; [8]): 0 | Sugarbeets plant response rating (sugar beet; [1]): 0 | Plant response rating, Sugarbeets (sugar beet; [3]): 2 | Plant response rating, Sugarbeets (sugar beet; [4]): 0 | Sugarbeets plant response rating (sugar beet; [5]): 0 | Sugarbeets plant response rating (sugar beet; [6]): 4 | Sugarbeets plant response rating (sugar beet; [7]): 6 | Sugarbeets plant response rating (sugar beet; [8]): 0 | Velvetleaf plant response rating (velvetleaf; [1]): 0 | Plant response rating, Velvetleaf (velvetleaf; [3]): 6 | Plant response rating, Velvetleaf (velvetleaf; [4]): 0 | Velvetleaf plant response rating (velvetleaf; [5]): 0 | Velvetleaf plant response rating (velvetleaf; [6]): 0 | Velvetleaf plant response rating (velvetleaf; [7]): 0 | Velvetleaf plant response rating (velvetleaf; [8]): 0 | Wheat plant response rating (wheat; [1]): 0 | Plant response rating, Wheat (wheat; [3]): 5 | Plant response rating, Wheat (wheat; [4]): 0 | Wheat plant response rating (wheat; [5]): 0 | Wheat plant response rating (wheat; [6]): 0 | Wheat plant response rating (wheat; [7]): 0 | Wheat plant response rating (wheat; [8]): 0 | Wild oats plant response rating (wild oat; [1]): 0 | Plant response rating, Wild oats (wild oat; [3]): 3 | Plant response rating, Wild oats (wild oat; [4]): 0 | Wild oats plant response rating (wild oat; [5]): 3 | Wild oats plant response rating (wild oat; [6]): 5 | Wild oats plant response rating (wild oat; [7]): 8 | Wild oats plant response rating (wild oat; [8]): 0 | Nutsedge plant response rating (purple nutsedge; [1]): 0 | Plant response rating, Nutsedge (purple nutsedge; [3]): 0 | Plant response rating, Nutsedge (purple nutsedge; [4]): 0 | Nutsedge plant response rating (purple nutsedge; [5]): 0 | Nutsedge plant response rating (purple nutsedge; [6]): 0 | Nutsedge plant response rating (purple nutsedge; [7]): 0 | Nutsedge plant response rating (purple nutsedge; [8]): 0 | Plant response rating, S. Flatsedge (0 to 10 scale, 0 is no effect, 10 is complete control) (smallflower flatsedge; [9]): 0 | S. Flatsedge plant response rating (0 to 10 scale, 0 is no effect, 10 is complete control) (smallflower flatsedge; [10]): 0 | S. Flatsedge plant response rating (smallflower flatsedge; [11]): 0 | S. Flatsedge plant response rating (smallflower flatsedge; [12]): 0 | Plant response rating, Ducksalad (0 to 10 scale, 0 is no effect, 10 is complete control) (duck salad; [9]): 0 | Ducksalad plant response rating (0 to 10 scale, 0 is no effect, 10 is complete control) (duck salad; [10]): 0 | Ducksalad plant response rating (duck salad; [11]): 0 | Ducksalad plant response rating (duck salad; [12]): 0

— patent publication US6737383B1, “Herbicidal oxadiazolidines” (priority 1999, dated 2004)
